Where two headings read alike, the source gives them in different places.
Test system: SMN protein
Assay: cellular SMN ELISA (SMN protein elevation) in myoblast cell line from SMNdelta7 mouse model
Assay type: cell-based
Method: A cellular SMN ELISA was used to measure the effects of low molecular weight compounds on SMN protein elevation. Cells from a myoblast cell line derived from the SMNdelta7 mouse model (kind gift from Steve Burden, NYU) were seeded into a 384-well plate at a density of 3000 cells/well and treated with compounds for 24 hours. ELISA capture plates were prepared by coating 384-well plates (Immulon 4HBX) with 0.5 ug/mL of anti-SMN mAb (BD Science, Catalog number 610647) at 4° C. overnight. The plates were washed 5 times with 110 uL of PBS-Tween (0.05% Tween-20, PBST), blocked with 100 uL of 1% BSA in PBST for 2 hours and washed (5 times) with 100 uL of PBST. After 24 hours of compound treatment cells were lysed in a modified RIPA-buffer, on ice for 1 hour. 20 uL of lysate and 20 uL of 1% BSA were then added to the ELISA capture plates and incubated at 4° C. overnight. Plates were washed (5 times) with PBST and then incubated with 1:100 dilution of primary rabbit anti-SMN polyclonal antibody (Santa cruz, Catalog number SC-15320) at room temperature for 1 hour and subsequently washed (5 times) with 110 uL of PBST. This was followed by addition of 1:100 Goat anti-Rabbit IgG-HRP linked (Cell Signaling, Catalog number 7074) secondary antibody for 1 hour. Plates were then washed with PBST and incubated with 40 uL TMB substrate (Cell Signaling, Catalog number 7004 L) at room temperature for 1-10 minutes with shaking. The reaction was stopped by addition of 40 uL of stop solution (Cell signaling, Catalog number 7002 L) and absorption was measured at 450 nm. Data was reported as fold activation over DMSO control, and EC50.
ELISA assay condition 1: compound concentration range 20 nM-10 uM; ELISA assay condition 2: compound concentration 100 pM-10 uM. Data generated in Biological Example 1 using ELISA conditions 1 or 2.

[1] = Biological Example 1, SMN ELISA, SMNdelta7 mouse myoblasts, 24 hours compound treatment
[2] = Biological Example 1, SMN ELISA, SMNdelta7 mouse myoblasts, 24 hours compound treatment, read-out: SMN Activity (EC50)
[3] = comparison of unsubstituted, ortho-hydroxy and ortho-alkoxy pyridazines, as in Biological Example 1
[4] = comparison of unsubstituted, ortho-hydroxy and ortho-alkoxy pyridazines, as in Biological Example 1, read-out: SMN ELISA EC50

Row | SMILES | SMN Activity (fold activation over DMSO control) [1] [fold] | EC50 [2] [µM] | Fold activation [3] | EC50 [4] [µM]
1 | CN(c1ccc(-c2cc3c(O)nccc3cc2O)nn1)C1CC(C)(C)NC(C)(C)C1 [Example 3-6, 7-(6-(methyl(2,2,6,6-tetramethylpiperidin-4-yl)amino)pyridazin-3-yl)isoquinoline-1,6-diol] | 2.43 | 0.008 |  | 
2 | Cc1cnc2cc(-c3ccc(N(C)C4CC(C)(C)NC(C)(C)C4)nn3)c(O)cc2c1 [Example 15-3, 3-methyl-7-(6-(methyl(2,2,6,6-tetramethylpiperidin-4-yl)amino)pyridazin-3-yl)quinolin-6-ol] | 3.28 | 0.007 |  | 
3 | CN(c1ccc(-c2cc3c(C(N)=O)nccc3cc2O)nn1)C1CC(C)(C)NC(C)(C)C1 [Example 26-4, 6-hydroxy-7-(6-(methyl(2,2,6,6-tetramethylpiperidin-4-yl)amino)pyridazin-3-yl)isoquinoline-1-carboxamide] | 2.57 | 0.007 |  | 
4 | CN(c1ccc(-c2c(O)ccc3cccnc23)nn1)C1CC(C)(C)NC(C)(C)C1 [Example 5-1, 8-(6-(methyl(2,2,6,6-tetramethylpiperidin-4-yl)amino)pyridazin-3-yl)quinolin-7-ol] | 2.6 | 0.3 |  | 
5 | CN(c1ccc(-c2ccc3cccnc3c2)nn1)C1CC(C)(C)NC(C)(C)C1 [drawing 136 R = H] |  |  | 2.5 | 0.37
6 | COC(=O)c1ccc2cc(O)c(-c3ccc(N(C)C4CC(C)(C)NC(C)(C)C4)nn3)cc2n1 [Example 26-7, methyl 6-hydroxy-7-(6-(methyl(2,2,6,6-tetramethylpiperidin-4-yl)amino)pyridazin-3-yl)quinoline-2-carboxylate] | 2.64 | 0.017 |  | 
7 | CN(c1ccc(-c2cc3cc(O)cnc3cc2O)nn1)C1CC(C)(C)NC(C)(C)C1 [Example 7-6, 6-(6-(methyl(2,2,6,6-tetramethylpiperidin-4-yl)amino)pyridazin-3-yl)quinoline-3,7-diol] | 2.9 | 0.3 |  | 
8 | Cc1cc(C2CC2)c2cc(-c3ccc(N(C)C4CC(C)(C)NC(C)(C)C4)nn3)c(O)cc2n1 [Example 20-3, 4-cyclopropyl-2-methyl-6-(6-(methyl(2,2,6,6-tetramethylpiperidin-4-yl)amino)pyridazin-3-yl)quinolin-7-ol] | 2.72 | 0.065 |  | 
9 | CN(c1ccc(-c2cc3cnccc3cc2O)nn1)C1CC(C)(C)N(C)C(C)(C)C1 [Example 3-1, 7-(6-(methyl(1,2,2,6,6-pentamethylpiperidin-4-yl)amino)pyridazin-3-yl)isoquinolin-6-ol] | 3.1 | 0.07 |  | 
10 | CC(C)c1cnc2cc(O)c(-c3ccc(N(C)C4CC(C)(C)NC(C)(C)C4)nn3)cc2c1 [Example 8-2, 3-isopropyl-6-(6-(methyl(2,2,6,6-tetramethylpiperidin-4-yl)amino)pyridazin-3-yl)quinolin-7-ol] | 2.50 | 0.19 |  | 
11 | CN(c1ccc(-c2cc3ccc(=O)[nH]c3cc2O)nn1)C1CC(C)(C)NC(C)(C)C1 [Example 9-1, 7-hydroxy-6-(6-(methyl(2,2,6,6-tetramethylpiperidin-4-yl)amino)pyridazin-3-yl)quinolin-2(1H)-one] | 2.25 | 0.03 |  | 
12 | COc1cc2cccnc2cc1-c1ccc(N(C)C2CC(C)(C)NC(C)(C)C2)nn1 [drawing 136 R = OMe, 6-(6-Methoxyquinolin-7-yl)-N-methyl-N-(2,2,6,6-tetramethylpiperidin-4-yl)pyridazin-3-amine] |  |  | 1.7 | 1.17
13 | CN(c1ccc(-c2cc3ncccc3cc2O)nn1)C1CC(C)(C)NC(C)(C)C1 [Example 6-1, 7-(6-(methyl(2,2,6,6-tetramethylpiperidin-4-yl)amino)pyridazin-3-yl)quinolin-6-ol] | 2.82 | 0.007 | 2.8 | 0.007
14 | Cc1cc2cc(O)c(-c3ccc(N4CCNCC4)nn3)cc2cn1 [Example 37-1, 3-methyl-7-(6-(piperazin-1-yl)pyridazin-3-yl)isoquinolin-6-ol] | 2.33 | 0.124 |  | 
15 | CN(c1ccc(-c2cc3ccncc3cc2O)nn1)C1CC(C)(C)NC(C)(C)C1 [Example 4-1, 6-(6-(methyl(2,2,6,6-tetramethylpiperidin-4-yl)amino)pyridazin-3-yl)isoquinolin-7-ol] | 2.6 | 0.006 | 2.6 | 0.006
16 | CN(c1ccc(-c2cc3c(cc2O)c(=O)ccn3C)nn1)C1CC(C)(C)NC(C)(C)C1 [Example 17-1, 6-hydroxy-1-methyl-7-(6-(methyl(2,2,6,6-tetramethylpiperidin-4-yl)amino)pyridazin-3-yl)quinolin-4(1H)-one] | 2.56 | 0.685 |  | 
17 | CN(c1ccc(-c2cc3cc(-c4cn(C)cn4)cnc3cc2O)nn1)C1CC(C)(C)NC(C)(C)C1 [Example 7-4, 6-(6-(methyl(2,2,6,6-tetramethylpiperidin-4-yl)amino)pyridazin-3-yl)-3-(1-methyl-1H-imidazol-4-yl)quinolin-7-ol] | 2.2 | 0.2 |  | 
18 | Cc1cc(C2CCOCC2)c2cc(-c3ccc(N(C)C4CC(C)(C)NC(C)(C)C4)nn3)c(O)cc2n1 [Example 20-5, 2-methyl-6-(6-(methyl(2,2,6,6-tetramethylpiperidin-4-yl)amino)pyridazin-3-yl)-4-(tetrahydro-2H-pyran-4-yl)quinolin-7-ol] | 2.69 | 0.286 |  | 
19 | CN(c1ccc(-c2cc3c(=O)nc[nH]c3cc2O)nn1)C1CC(C)(C)NC(C)(C)C1 [Example 22-1, 7-hydroxy-6-(6-(methyl(2,2,6,6-tetramethylpiperidin-4-yl)amino)pyridazin-3-yl)quinazolin-4(1H)-one] | 2.58 | 0.11 |  | 
20 | CN(c1ccc(-c2cc3cncnc3cc2O)nn1)C1CC(C)(C)NC(C)(C)C1 [Example 23-1, 6-(6-(methyl(2,2,6,6-tetramethylpiperidin-4-yl)amino)pyridazin-3-yl)quinazolin-7-ol] | 3.6 | 0.041 |  | 
21 | Cc1cc(-c2cnn(C)c2)c2cc(-c3ccc(N(C)C4CC(C)(C)NC(C)(C)C4)nn3)c(O)cc2n1 [Example 11-1, 2-methyl-6-(6-(methyl(2,2,6,6-tetramethylpiperidin-4-yl)amino)pyridazin-3-yl)-4-(1-methyl-1H-pyrazol-4-yl)quinolin-7-ol] | 2.6 | 0.06 |  | 
22 | CN(c1ccc(-c2cc3cccnc3cc2O)nn1)C1CC(C)(C)NC(C)(C)C1 [Example 1-1, 6-(6-(Methyl(2,2,6,6-tetramethylpiperidin-4-yl)amino)pyridazin-3-yl)quinolin-7-ol] | 2.9 | 0.02 | 2.9 | 0.02
23 | CC1(C)CC(Oc2ccc(-c3cc4c(O)nccc4cc3O)nn2)CC(C)(C)N1 [Example 35-4, 7-(6-((2,2,6,6-tetramethylpiperidin-4-yl)oxy)pyridazin-3-yl)isoquinoline-1,6-diol] | 3.26 | 0.096 |  | 
24 | Cc1cc(N2CCC2)c2cc(-c3ccc(N(C)C4CC(C)(C)NC(C)(C)C4)nn3)c(O)cc2n1 [Example 20-1, 4-(azetidin-1-yl)-2-methyl-6-(6-(methyl(2,2,6,6-tetramethylpiperidin-4-yl)amino)pyridazin-3-yl)quinolin-7-ol] | 2.86 | 0.084 |  | 
25 | CN(c1ccc(-c2cc3ncc(Br)cc3cc2O)nn1)C1CC(C)(C)NC(C)(C)C1 [Example 15-2, 3-bromo-7-(6-(methyl(2,2,6,6-tetramethylpiperidin-4-yl)amino)pyridazin-3-yl)quinolin-6-ol] | 2.52 | 0.019 |  | 
26 | N#Cc1ccc2cc(-c3ccc(N4CCNCC4)nn3)c(O)cc2n1 [Example 27-2, 7-hydroxy-6-(6-(piperazin-1-yl)pyridazin-3-yl)quinoline-2-carbonitrile] | 2.42 | 0.395 |  | 
27 | Cc1ccc2cc(O)c(-c3ccc(N(C)C4CC(C)(C)NC(C)(C)C4)nn3)cc2n1 [Example 6-2, 2-methyl-7-(6-(methyl(2,2,6,6-tetramethylpiperidin-4-yl)amino)pyridazin-3-yl)quinolin-6-ol] | 3.2 | 0.004 |  | 

— US11672799B2, “1,4-disubstituted pyridazine quinolne analogs there of and methods for treating SMN-deficiency-related conditions” (Novartis AG, priority 2013, dated 2023)
